Results reported in US10704079B2, “Methods for the detection of beta-lactamases in a sample” (priority 2007, dated 2020).
≈ marks a conversion by molar mass, not a printed value. Where two headings read alike, the source gives them in different places.

Columns and labels:
class C beta-lactamases = test: Beta-lactamase inhibition at certain concentrations; assay type: biochemical
class A beta-lactamases = test: as above; assay type: biochemical
ESBLs = test: as above; assay type: biochemical
[1] = tested on: original-spectrum beta-lactamases (OSBLs); test: as above; assay type: biochemical
E. coli strains [2] = test: Cefoxitin MIC assay, microbroth dilution (CLSI); assay type: cell-based
Protocol: Cefoxitin MIC Assay were performed by microbroth dilution method according to the CLSI (Clinical and Laboratory Standards Institute) standard.

[3] = tested on: Klebsiella pneumoniae (KLEPNEP) strains; test: MIC assays of CTX, CCX, CAZ, CCZ, microbroth dilution (CLSI); assay type: cell-based
Protocol: (§1) MIC Assays of CTX (cefotaxime), […] (cefotaxime/clavulanic acid), CAZ (ceftazidime) and CCZ (ceftazidime/clavulanic acid) were performed by microbroth dilution method according to the CLSI (Clinical and Laboratory Standards Institute) standard.

E. coli (ESCCOL) strains = test: as above; assay type: cell-based; conditions: Escherichia coli
Protocol: as §1

E. coli strains [4] = test: Lysis testing on Phoenix panel, nitrocefin hydrolysis rate; assay type: cell-based; parameters: unit not given here; conditions: without vs with lysis reagent
Protocol: (§2) Stock solutions with nitrocefin, trehalose, and/or reagents used to lyse the bacterial cells in pH6 MES buffer were prepared and dispensed into wells on the bottom part of Phoenix™ panel (BD, USA), with one stock solution in one well. Panels were then dried in an oven for approximately 30 min at approximately 70° C. The top part of Phoenix panel was then attached to the bottom part forming a panel system ready for inoculation. The concentrations of reagents after rehydration following Phoenix panel inoculation were 3 mg/ml lysozyme, 1 mM EDTA, and 1% trehalose in 0.1M pH6 MES buffer.
(§3) Representative strains of bacteria, such as E. coli and Klebsiella pneumoniae, were each streaked on a Trypticase™ Soy Agar with 5% Sheep Blood agar plate (BD, USA) and the plates were incubated at 35° C. for 18 hours. Afterwards, colonies from pure culture on each plate were inoculated into BD Phoenix ID broth (BD, USA) and adjusted to a desired turbidity of approximately 0.5 MacFarland. The bacterial cell suspension was then poured into the ID side of the Phoenix panels that were specifically made for cell lysis testing. Once inoculated, the panel was loaded into Phoenix instrument, where nitrocefin hydrolysis rate was monitored by colorimetric signals changes every 20 minutes for 16 hours.

[5] = tested on: Klebsiella pneumoniae strains; test: as above; assay type: cell-based; parameters: unit not given here; conditions: without vs with lysis reagent
Protocol: as §2, §3

[6] = tested on: Pseudomonas aeruginosa (PSEAER) strains; test: Imipenem MIC assay, microbroth dilution (CLSI); assay type: cell-based; conditions: PSEAER strain 6 of Table 16 (MBL)
Protocol: (§4) Imipenem MIC Assay were performed by microbroth dilution method according to the CLSI (Clinical and Laboratory Standards Institute) standard.

[7] = tested on: Klebsiella pneumoniae strains; test: Imipenem MIC assay, microbroth dilution (CLSI); assay type: cell-based; conditions: for MIC: Klebsiella pneumoniae
Protocol: (§5) Imipenem MIC Assay was performed by microbroth dilution method according to the CLSI (Clinical and Laboratory Standards Institute) standard.
as §4

E. coli strains [8] = test: Imipenem MIC assay, microbroth dilution (CLSI); assay type: cell-based; conditions: Escherichia coli
Protocol: as §5

[9] = tested on: Klebsiella oxytoca strains; test: Imipenem MIC assay, microbroth dilution (CLSI); assay type: cell-based
Protocol: as §5

[10] = KLEPNEP strain 7 of Table 20 (ESBL), read-out: MIC
[11] = KLEPNEP strain 8 of Table 20 (OSBL), read-out: MIC
[12] = KLEPNEP strain 9 of Table 20 (OSBL), read-out: MIC
[13] = KLEPNEP strain 10 of Table 20 (WT), read-out: MIC
[14] = ESCCOL strain 2 of Table 20 (ESBL), read-out: MIC
[15] = ESCCOL strain 3 of Table 20 (OSBL), read-out: MIC
[16] = ESCCOL strain 4 of Table 20 (OSBL), read-out: MIC
[17] = ESCCOL strain 5 of Table 20 (WT), read-out: MIC

## Cc1onc(-c2ccccc2Cl)c1C(=O)N[C@@H]1C(=O)N2[C@@H]1SC(C)(C)[C@@H]2C(=O)O [cloxacillin]
Class C beta-lactamases
  inhibition of class C beta-lactamases: inhibits
Class A beta-lactamases
  inhibition of class A beta-lactamases: inhibits

## O=C(O)[C@H]1/C(=C/CO)O[C@@H]2CC(=O)N21 [clavulanic acid]
ESBLs
  inhibition of ESBLs: inhibits
[1]
  inhibition of OSBLs: inhibits

## CO[C@@]1(NC(=O)Cc2cccs2)C(=O)N2C(C(=O)O)=C(COC(N)=O)CS[C@@H]21 [Cefoxitin]
E. coli strains [2]; E. coli strain 1 of Table 18 (WT)
  Cefoxitin MIC: ≤ 4 µg/mL
E. coli strains [2]; E. coli strain 2 of Table 18 (OSBL, C-plasmid)
  Cefoxitin MIC: > 32 µg/mL
E. coli strains [2]; E. coli strain 3 of Table 18 (OSBL, C-chromo)
  Cefoxitin MIC: > 32 µg/mL
E. coli strains [2]; E. coli strain 4 of Table 18 (OSBL)
  Cefoxitin MIC: 32 µg/mL
E. coli strains [2]; E. coli strain 5 of Table 18 (ESBL, C-plasmid)
  Cefoxitin MIC: > 32 µg/mL
E. coli strains [2]; E. coli strain 6 of Table 18 (ESBL, C-chromo)
  Cefoxitin MIC: =32
E. coli strains [2]; E. coli strain 7 of Table 18 (ESBL)
  Cefoxitin MIC: =8
E. coli strains [2]; E. coli strain 8 of Table 18 (C-chromo)
  Cefoxitin MIC: > 32 µg/mL
E. coli strains [2]; E. coli strain 9 of Table 18 (Carbapenemase)
  Cefoxitin MIC: > 32 µg/mL
E. coli strains [2]; E. coli strain 10 of Table 18 (C-plasmid)
  Cefoxitin MIC: > 32 µg/mL
E. coli strains [2]; E. coli strain 11 of Table 18 (OSBL, C-plasmid)
  Cefoxitin MIC: > 32 µg/mL

## CO/N=C(\C(=O)N[C@@H]1C(=O)N2C(C(=O)O)=C(COC(C)=O)CS[C@H]12)c1csc(N)n1 [CTX, cefotaxime]
[3]; KLEPNEP strain 6 of Table 20 (ESBL), read-out: MIC
  MIC: > 64 µg/mL
[3]; [10]
  MIC: > 64 µg/mL
[3]; [11]
  MIC: ≤ 0.25 µg/mL
[3]; [12]
  MIC: ≤ 0.25 µg/mL
[3]; [13]
  MIC: 0.5 µg/mL (≈ 1.1 µM)
E. coli (ESCCOL) strains; ESCCOL strain 1 of Table 20 (ESBL), read-out: MIC
  MIC: 32 µg/mL (≈ 70.3 µM)
E. coli (ESCCOL) strains; [14]
  MIC: > 64 µg/mL
E. coli (ESCCOL) strains; [15]
  MIC: ≤ 0.25 µg/mL
E. coli (ESCCOL) strains; [16]
  MIC: ≤ 0.25 µg/mL
E. coli (ESCCOL) strains; [17]
  MIC: ≤ 0.25 µg/mL

## O=C(Cc1cccs1)N[C@@H]1C(=O)N2C(C(=O)O)=C(/C=C/c3ccc([N+](=O)[O-])cc3[N+](=O)[O-])CS[C@H]12 [NCF, 3-[2,4-dinitrostyryl]-7-(2-thienylacetamido]3-cephem-4-carobxylic acid]
E. coli strains [4]; E. coli sample 1, intracellular beta-lactamase +
  NCF activity (maximum nitrocefin hydrolysis rate within 10 hrs): 1.9
E. coli strains [4]; E. coli sample 2, intracellular beta-lactamase +
  NCF activity (maximum nitrocefin hydrolysis rate within 10 hrs): 2.1
E. coli strains [4]; E. coli sample 3, intracellular beta-lactamase +
  NCF activity (maximum nitrocefin hydrolysis rate within 10 hrs): 2.3
E. coli strains [4]; E. coli sample 4, intracellular beta-lactamase +
  NCF activity (maximum nitrocefin hydrolysis rate within 10 hrs): 1.9
E. coli strains [4]; E. coli sample 5, intracellular beta-lactamase +
  NCF activity (maximum nitrocefin hydrolysis rate within 10 hrs): 8.2
E. coli strains [4]; E. coli sample 6, intracellular beta-lactamase +
  NCF activity (maximum nitrocefin hydrolysis rate within 10 hrs): 7.2
E. coli strains [4]; E. coli sample 7, intracellular beta-lactamase +
  NCF activity (maximum nitrocefin hydrolysis rate within 10 hrs): 6.8
E. coli strains [4]; E. coli sample 8, intracellular beta-lactamase −
  NCF activity (maximum nitrocefin hydrolysis rate within 10 hrs): 1.7
[5]; Klebsiella pneumoniae sample 9, intracellular beta-lactamase +
  NCF activity (maximum nitrocefin hydrolysis rate within 10 hrs): 1.3
[5]; Klebsiella pneumoniae sample 10, intracellular beta-lactamase +
  NCF activity (maximum nitrocefin hydrolysis rate within 10 hrs): 3.3
[5]; Klebsiella pneumoniae sample 11, intracellular beta-lactamase +
  NCF activity (maximum nitrocefin hydrolysis rate within 10 hrs): 3.9
[5]; Klebsiella pneumoniae sample 12, intracellular beta-lactamase +
  NCF activity (maximum nitrocefin hydrolysis rate within 10 hrs): 2.6
[5]; Klebsiella pneumoniae sample 13, intracellular beta-lactamase +
  NCF activity (maximum nitrocefin hydrolysis rate within 10 hrs): 6.7
[5]; Klebsiella pneumoniae sample 14, intracellular beta-lactamase +
  NCF activity (maximum nitrocefin hydrolysis rate within 10 hrs): 7.5
[5]; Klebsiella pneumoniae sample 15, intracellular beta-lactamase +
  NCF activity (maximum nitrocefin hydrolysis rate within 10 hrs): 9.1
[5]; Klebsiella pneumoniae sample 16, intracellular beta-lactamase −
  NCF activity (maximum nitrocefin hydrolysis rate within 10 hrs): 1.2

## C[C@@H](O)[C@H]1C(=O)N2C(C(=O)O)=C(SCCN=CN)C[C@H]12 [Imipenem]
[6]
  Imipenem MIC: > 16 µg/mL
[7]; KLEPENEP strain 5 of Table 16 (WT)
  Imipenem MIC: ≤ 2 µg/mL
[7]; KLEPNEP strain 1 of Table 14 (ESBL, MBL)
  Imipenem MIC: = 4
[7]; KLEPNEP strain 1 of Table 16 (ESBL, MBL)
  Imipenem MIC: 4 µg/mL
[7]; KLEPNEP strain 2 of Table 14 (WT)
  Imipenem MIC: ≤ 2 µg/mL
[7]; KLEPNEP strain 2 of Table 16 (MBL)
  Imipenem MIC: > 16 µg/mL
[7]; KLEPNEP strain 3 of Table 14 (OSBL, Carbapenemase)
  Imipenem MIC: > 16 µg/mL
[7]; KLEPNEP strain 3 of Table 16 (ESBL, Carbapenemase)
  Imipenem MIC: = 8
[7]; KLEPNEP strain 4 of Table 14 (ESBL, C-plasmid)
  Imipenem MIC: ≤ 2 µg/mL
[7]; KLEPNEP strain 4 of Table 16 (ESBL, C-plasmid)
  Imipenem MIC: ≤ 2 µg/mL
[7]; Klebsiella pneumoniae strain 1 of Table 10 (C-plasmid)
  Imipenem MIC: <=2 μg/ml
[7]; Klebsiella pneumoniae strain 6 of Table 10 (ESBL, C-plasmid)
  Imipenem MIC: <=2 μg/ml
[7]; Klebsiella pneumoniae strain 8 of Table 10 (OSBL, C-plasmid)
  Imipenem MIC: <=2 μg/ml
[7]; Klebsiella pneumoniae strain 11 of Table 10 (OSBL, C-plasmid)
  Imipenem MIC: <=2 μg/ml
[7]; Klebsiella pneumoniae strain 14 of Table 10 (ESBL, C-plasmid)
  Imipenem MIC: <=2 μg/ml
[7]; Klebsiella pneumoniae strain 2 of Table 10 (ESBL, MBL)
  MIC: 4 µg/mL (≈ 13.4 µM)
[7]; Klebsiella pneumoniae strain 3 of Table 10 (ESBL, C)
  MIC: ≤ 2 µg/mL
[7]; Klebsiella pneumoniae strain 4 of Table 10 (ESBL, Carb (KPC))
  MIC: 8 µg/mL (≈ 26.7 µM)
[7]; Klebsiella pneumoniae strain 7 of Table 10 (WT)
  MIC: ≤ 2 µg/mL
[7]; Klebsiella pneumoniae strain 9 of Table 10 (OSBL, carb)
  MIC: > 16 µg/mL
[7]; Klebsiella pneumoniae strain 10 of Table 10 (WT)
  MIC: ≤ 2 µg/mL
[7]; Klebsiella pneumoniae strain 12 of Table 10 (MBL)
  MIC: > 16 µg/mL
[7]; Klebsiella pneumoniae strain 13 of Table 10 (ESBL, MBL)
  MIC: 4 µg/mL (≈ 13.4 µM)
[7]; Klebsiella pneumoniae strain 15 of Table 10 (Carb(KPC))
  MIC: 8 µg/mL (≈ 26.7 µM)
[7]; Klebsiella pneumoniae strain 16 of Table 10 (ESBL, Carb(KPC))
  MIC: 8 µg/mL (≈ 26.7 µM)
E. coli strains [8]; E. coli strain 1 of Table 8 (C-chromo)
  MIC: ≤ 2 µg/mL
E. coli strains [8]; E. coli strain 3 of Table 8 (Carb (KPC))
  MIC: 16 µg/mL (≈ 53.4 µM)
E. coli strains [8]; E. coli strain 4 of Table 8 (ESBL, C-chromo)
  MIC: ≤ 2 µg/mL
E. coli strains [8]; E. coli strain 5 of Table 8 (IRT, C-chromo)
  MIC: ≤ 2 µg/mL
E. coli strains [8]; E. coli strain 6 of Table 8 (OSBL, Carb)
  MIC: 8 µg/mL (≈ 26.7 µM)
E. coli strains [8]; E. coli strain 8 of Table 8 (WT)
  MIC: ≤ 0.25 µg/mL
E. coli strains [8]; E. coli strain 9 of Table 8 (WT)
  MIC: ≤ 2 µg/mL
E. coli strains [8]; E. coli strain 10 of Table 8 (OSBL, C-chromo)
  MIC: ≤ 2 µg/mL
E. coli strains [8]; E. coli strain 11 of Table 8 (ESBL, C)
  MIC: ≤ 2 µg/mL
[9]; Klebsiella oxytoca strain 1 of Table 12 (K1-high)
  Imipenem MIC: ≤ 2 µg/mL
[9]; Klebsiella oxytoca strain 2 of Table 12 (OSBL, K1-high)
  Imipenem MIC: ≤ 2 µg/mL
[9]; Klebsiella oxytoca strain 3 of Table 12 (OSBL, K1-high, Carb)
  Imipenem MIC: > 16 µg/mL
[9]; Klebsiella oxytoca strain 4 of Table 12 (WT)
  Imipenem MIC: ≤ 2 µg/mL

## CC(C)(O/N=C(\C(=O)N[C@@H]1C(=O)N2C(C(=O)[O-])=C(C[n+]3ccccc3)CS[C@H]12)c1csc(N)n1)C(=O)O [CAZ, ceftazidime]
[3]
  MIC: > 128 µg/mL
[3]; [10]
  MIC: 8 µg/mL (≈ 14.6 µM)
[3]; [11]
  MIC: ≤ 0.25 µg/mL
[3]; [12]
  MIC: ≤ 0.25 µg/mL
[3]; [13]
  MIC: ≤ 0.25 µg/mL
E. coli (ESCCOL) strains
  MIC: > 128 µg/mL
E. coli (ESCCOL) strains; [14]
  MIC: 16 µg/mL (≈ 29.3 µM)
E. coli (ESCCOL) strains; [15]
  MIC: ≤ 0.25 µg/mL
E. coli (ESCCOL) strains; [16]
  MIC: ≤ 0.25 µg/mL
E. coli (ESCCOL) strains; [17]
  MIC: ≤ 0.25 µg/mL
